Where no end group is shown, it is not given here.
Key:
[1] = test system: MCF 7 breast cancer cell line; experiment: Induction of apoptosis (APO-ONE caspase 3/7) and cell viability (CellTiter Blue); assay type: cell-based, human; parameters: key: decreased (+); or not (−); conditions: SorC27
Description: (§1) MCF-7, MDA-MB-231, MDA-MB-415, MDA-MB-468 were grown in DMEM modified with 10% (v/v) fetal bovine serum, 2 mM L-glutamine and 50 ug/mL each of penicillin and streptomycin.
(§2) The levels of apoptotic induction and cell viability were determined by multiplexing the measurements for single samples. CellTiter Blue and APO-ONE assay systems from Promega allows the determination of cell viability correlated to cell number, and induction of apoptosis. This protocol uses a fluorgenic peptide that contains a peptide recognition-sequence for caspase 3 and caspase 7, […] proteolytic enzymes of the apoptosis cascade. The CellTiter Blue reagent was added to wells in a 96-well plate containing cells under test, immediately after addition of peptide solution or vehicle. About 5000 cells were plated into the wells the day before. At the chosen time (Day 1, Day 2 etc.) the fluorescence was measured at 590 nm (emission) after excitation at 560 nm. The caspase 3/7 activity was measured (485 nm Ex/527 nm Em) in the same wells after adding 120 uL of the Apo-ONE reagent, freeze fracturing at −80° C. for 1 hr, and incubating for 1 hr at room temperature.
For this work, the concentrations of SorC13 and SorC27 used were 0 uM, 1 uM, 10 uM and 100 uM. The experiments extended over a 5 to 7 day period. […]

[2] = Clearance route in iv mice; conditions: i.v.
[3] = test system: SKOV3 ovarian cancer xenografts; experiment: SKOV3 ovarian cancer xenograft, SorC13 with CAT chemotherapy (Example 26); assay type: in vivo, NOD/SCID mice; conditions: day 12; SorC13 300 mg/kg i.p. Day 1 to 12
Description: SorC13 stock solutions were prepared by dissolving the appropriate amounts of the compound in physiologically buffered saline (pH 7.0 at 25° C.) to comprise a final solution to deliver 300 mg/Kg mouse. Stock solutions were prepared weekly, stored at −20° C. and diluted fresh each day for dosing. All solutions were filter sterilized with a 0.22 mu filter prior to further manipulation. The filter sterilizer units were pre-washed with a small volume of sterile distilled water. […]
To implant SKOV3 tumor cells into NOD/SCID mice, cell cultures were centrifuged to pellet the cells, the supernatant was aspirated, the cell pellet resuspended in 10 ml of growth media and the cell number was determined using a hemocytometer. […]
Tumor volumes (V) were calculated by caliper measurement using standard measurements of the width (W), length (L) and thickness (T) of tumors. […] Percentage ΔT/ΔC values, as a measure of efficacy, were determined where ΔC refers to change in volume of control or untreated tumor, and ΔT refers to change in volume of treated tumor.
Animals were intraperitoneally (i.p.) injected with the vehicular control, or the low, medium or high doses of CAT or CAT and SorC13. […] The tumor volume and body weights were measured every day. As well, general health of the animals was monitored every day.

[4] = test system: MCF 7 breast cancer cell line; experiment: Induction of apoptosis (APO-ONE caspase 3/7) and cell viability (CellTiter Blue); assay type: cell-based, human; parameters: key: cell viability decreased (+); or not (−)
Description: as §1, §2
For this work, the concentrations of SorC13 and SorC27 used were 0 uM, 1 uM, 10 uM and 100 uM. The experiments extended over a 5 to 7 day period. All measurements were done in quadruplicate with both a blank (no cells) and control (vehicle, no peptide) used to correct the test measurements. The time-response data, and the dose-response data were plotted as means±standard error of the mean. Any statistical comparisons were done with the Student's t-test or by ANOVA analysis over the dose course. The level of statistical significance was considered to be the 95% confidence interval (i.e., p≤0.05).
To benchmark the effect of both C-type peptides to the gold-standard treatment presently used against breast cancer (Paclitaxel), SorC13, SorC27 and Paclitaxel (10 uM) were compared. Both the APO-ONE assay (Promega) and the CellTiter Blue were used on the panel of breast cancer cell lines. […]

Sequence	Decline in cell viability [1]	Clearance route in iv mice @ 5 mg/kg [2]	% ΔT/ΔC (tumour volume normalized to control volume) [3] [%]	Mean tumor volume [3] [mm^3]	Decline in cell viability ([4]; SorC13 1 uM)	Decline in cell viability ([4]; SorC13 10 uM)	Decline in cell viability ([4]; SorC13 100 uM)
EGKLSSNDTEGGLCKEFLHPSKVDLPR [SorC27]	+	Rapid via kidney.					
KEFLHPSKVDLPR [SorC13, KEFLHPSKVDLPR]			47.6	116.8	−	−	+

Source: patent US10058587B2, “Peptide composition for cancer treatment by inhibiting TRPV6 calcium channel activity” (priority 2008, dated 2018)
